Organism: Mus musculus
Test: Compound was tested in vitro for its immunosuppressive potential using mouse mixed lymphocyte reaction (MLR_M) with relative to Cyclophilin A
Type: functional

SMILES: C/C=C/C[C@@H](C)[C@@H](O)[C@H]1C(=O)N[C@@H](C(O)Cc2ccccc2)C(=O)N(C)CC(=O)N(C)[C@@H](CC(C)C)C(=O)N[C@@H](C(C)C)C(=O)N(C)[C@@H](CC(C)C)C(=O)N[C@@H](C)C(=O)N[C@H](C)C(=O)N(C)[C@@H](CC(C)C)C(=O)N(C)[C@@H](CC(C)C)C(=O)N(C)[C@@H](C(C)C)C(=O)N1C (stereo partly specified)
- rIC50: 360

— ChEMBL document CHEMBL1128112, “The Abu-pocket paradox of the cyclophilin a / cyclosporin a interaction” (1995)
